Drawing on patent US12275733B2, “Substituted pyrido[3,4-b]indoles for the treatment of cartilage disorders” (Sanofi, priority 2016, dated 2025), this text covers EC50 and Emax for 34 compounds.

The test system of the test is ATDC5 cells. Kind of test: Chondrogenesis activity assay in ATDC5 cells (collagen type II induction, immunofluorescence). In kind it is cell-based, mouse. Conditions: Mus musculus; for EC50: collagen type II induction in ATDC5 cells, concentration reaching 50% of maximum induction; for Emax: maximum percent induction of collagen type II relative to internal reference compound at 10 μM, ATDC5 cells. The method, boiled down:
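Collagen type II was stained in fixed, permeabilized cells with an Alexa Fluor 488 secondary and measured by high-content fluorescence imaging. ATDC5 cells had 4 days at 37 °C in insulin-supplemented differentiation medium with compound, typically 40 nM–10 μM, 0.1% DMSO. DMSO wells and a 10 μM internal reference compound were used for normalization.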

In the case of `CCn1c2c(-c3ccc(OCCN(C(C)C)C(C)C)cc3)cc(Cl)cc2c2ccnc(C)c21` [Example 26, (2-[4-(6-Chloro-9-ethyl-1-methyl-9H-pyrido[3,4-b]indol-8-yl)-phenoxy]-ethyl)-diisopropyl-amine], the EC50 (usually the concentration giving half of the maximal effect) was 530 nM and the Emax (in general, the size of the effect at its maximum, as opposed to the concentration needed) fell in the range of 50 to 80%. Compound `CCn1c2c(-c3ccncc3)cc(Cl)cc2c2ccnc(C)c21` [Example 125, 6-Chloro-9-ethyl-1-methyl-8-pyridin-4-yl-9H-pyrido[3,4-b]indole] had an EC50 of 1000 nM and an Emax greater than 80%.

On to `CCn1c2cnccc2c2cc(Cl)cc(-c3cccnc3Cl)c21` [Example 56, 6-Chloro-8-(2-chloro-pyridin-3-yl)-9-ethyl-9H-pyrido[3,4-b]indole], for which the EC50 came to 460 nM and the Emax was 20 to 50%.

`Cc1cc(-c2cc(Cl)cc3c4ccncc4n(CC(F)(F)F)c23)n(C)n1` [Example 140, 6-Chloro-8-(2,5-dimethyl-2H-pyrazol-3-yl)-9-(2,2,2-trifluoro-ethyl)-9H-pyrido[3,4-b]indole] displayed an EC50 of 910 nM and an Emax of 20 to 50%. Regarding `Cc1nccc2c1[nH]c1c(-c3ccc(OCC(O)CN4CCCCC4)cc3)cc(Cl)cc12` (stereo not shown) [Example 229, 1-[4-(6-Chloro-1-methyl-9H-pyrido[3,4-b]indol-8-yl)-phenoxy]-3-piperidin-1-yl-propan-2-ol], a half-maximal effect (EC50) was put at 280 nM and the Emax fell in the range of 50 to 80%. The matching figures for `CCn1c2c(-c3cc[nH]n3)cc(Cl)cc2c2ccnc(C)c21` [Example 234, 6-Chloro-9-ethyl-1-methyl-8-(1H-pyrazol-3-yl)-9H-pyrido[3,4-b]indole]: 5800 nM and 50 to 80%. `COc1ccc(-c2cc(Cl)cc3c2[nH]c2c(C)nccc23)c(C)n1` [Example 104, 6-Chloro-8-(6-methoxy-2-methyl-pyridin-3-yl)-1-methyl-9H-pyrido[3,4-b]indole]: the EC50 stood at 3500 nM and the Emax is greater than 80%. In the case of `Cc1cc(-c2cc(Cl)cc3c2[nH]c2c(C)nccc23)ccc1OC1CCOC1` (stereo not shown) [Example 198, 6-Chloro-1-methyl-8-[3-methyl-4-(tetrahydrofuran-3-yloxy)-phenyl]-9H-pyrido[3,4-b]indole], the EC50 was 1800 nM and the Emax lay in the range of 20 to 50%. As to `Clc1cc(-c2ccc(Cl)nc2)c2[nH]c3cnccc3c2c1` [Example 73, 6-Chloro-8-(6-chloro-pyridin-3-yl)-9H-pyrido[3,4-b]indole], the EC50 came to 440 nM and the Emax was 20 to 50%. As to `COc1ccc(-c2cc(Cl)cc3c4ccnc(C)c4n(CC4CC4)c23)cc1` [Example 293, 6-Chloro-9-cyclopropylmethyl-8-(4-methoxy-phenyl)-1-methyl-9H-pyrido[3,4-b]indole], the EC50 worked out at 4500 nM and the Emax was 50 to 80%. Consider `CC(=O)OCCn1cc(-c2cc(Cl)cc3c4ccncc4n(CC(F)(F)F)c23)cn1` [Example 163, Acetic acid 2-(4-[6-chloro-9-(2,2,2-trifluoro-ethyl)-9H-pyrido[3,4-b]indol-8-yl]-pyrazol-1-yl)-ethyl ester], for which the EC50 was found to be 690 nM and the Emax is greater than 80%. Regarding `FC(F)(F)Cn1c2cnccc2c2cc(Cl)cc(-c3cnn(Cc4ccccc4)c3)c21` [Example 162, 8-(1-Benzyl-1H-pyrazol-4-yl)-6-chloro-9-(2,2,2-trifluoro-ethyl)-9H-pyrido[3,4-b]indole], a half-maximal effect (EC50) was put at 590 nM and the Emax is greater than 80%.

`COc1ccc(-c2cc(Cl)cc3c2[nH]c2cnccc23)cc1` [Example 191, 6-Chloro-8-(4-methoxy-phenyl)-9H-pyrido[3,4-b]indole] returned an EC50 of 550 nM and an Emax greater than 80%. The compound `N#CCn1c2cnccc2c2cc(Cl)cc(-c3ccc(Cl)nc3Cl)c21` [Example 4, 2-(6-Chloro-8-(2,6-dichloropyridin-3-yl)-9H-pyrido[3,4-b]indol-9-yl)acetonitrile] registered an EC50 of 830 nM and an Emax greater than 80%. As to `Cc1nccc2c1[nH]c1c(-c3ccc(N4CCCCC4)nc3)cc(Cl)cc12` [Example 101, 6-Chloro-1-methyl-8-(3,4,5,6-tetrahydro-2H-[1,2′]bipyridinyl-5′-yl)-9H-pyrido[3,4-b]indole], a half-maximal effect (EC50) was put at 8200 nM and the maximal effect (Emax) is 20 to 50%.

`CCn1c2c(-c3ccc(N4CCOCC4)nc3)cc(Cl)cc2c2ccnc(C)c21` [Example 93, 6-Chloro-9-ethyl-1-methyl-8-(6-morpholin-4-yl-pyridin-3-yl)-9H-pyrido[3,4-b]indole]: the EC50 was 2200 nM and the Emax is greater than 80%. As for `Cc1nccc2c1[nH]c1c(-c3cccc(CN4CCOCC4)c3)cc(Cl)cc12` [Example 255, 6-Chloro-1-methyl-8-(3-morpholin-4-ylmethyl-phenyl)-9H-pyrido[3,4-b]indole], the EC50 is greater than 3300 nM and the Emax is less than 20%. `Cc1nccc2c1[nH]c1c(-c3ccc(CC(=O)N4CCC(N5CCCC5)CC4)cc3)cc(Cl)cc12` [Example 204, 2-[4-(6-Chloro-1-methyl-9H-pyrido[3,4-b]indol-8-yl)-phenyl]-1-(4-pyrrolidin-1-yl-piperidin-1-yl)-ethanone] had an EC50 of 190 nM and an Emax of 50 to 80%.

Compound `Cc1nccc2c3cc(Cl)cc(-c4ccc(C#N)nc4)c3n(CC3CC3)c12` [Example 47, 5-(6-Chloro-9-cyclopropylmethyl-1-methyl-9H-pyrido[3,4-b]indol-8-yl)-pyridine-2-carbonitrile] returned an EC50 greater than 10000 nM and an Emax of 20 to 50%. On to `Cc1nccc2c1[nH]c1c(-c3ccc(OC(F)(F)F)cc3)cc(Cl)cc12` [Example 262], for which the EC50 is 2300 nM and the Emax is greater than 80%. In the same order, the values of `Cc1ccc(-c2cc(Cl)cc3c2[nH]c2c(C)nccc23)cn1` [Example 95, 6-Chloro-1-methyl-8-(6-methyl-pyridin-3-yl)-9H-pyrido[3,4-b]indole] are 680 nM and 50 to 80%.

Consider `Cc1nc(Br)cc2c1[nH]c1c(-c3ccc(OCCn4cc(Br)cn4)cc3)cc(Cl)cc12` [Example 43, 3-Bromo-8-(4-[2-(4-bromo-pyrazol-1-yl)-ethoxy]-phenyl)-6-chloro-1-methyl-9H-pyrido[3,4-b]indole], for which the EC50 was greater than 6600 nM and the Emax is less than 20%. In the case of `Cc1nccc2c1[nH]c1c(-c3ccc(N4CCNC(=O)C4)nc3)cc(Cl)cc12` [Example 109, 4-[5-(6-Chloro-1-methyl-9H-pyrido[3,4-b]indol-8-yl)-pyridin-2-yl]-piperazin-2-one], it took 720 nM to reach a half-maximal effect (EC50) and the Emax is 50 to 80%. Compound `Cn1c(-c2cc(Cl)cc3c4ccncc4n(CC(F)(F)F)c23)cnc1Cl` [Example 114, 6-Chloro-8-(2-chloro-3-methyl-3H-imidazol-4-yl)-9-(2,2,2-trifluoro-ethyl)-9H-pyrido[3,4-b]indole] returned an EC50 of 5700 nM and an Emax of 20 to 50%. With `FC(F)(F)Cn1c2cnccc2c2cc(Cl)cc(-c3csc(Cl)c3)c21` [Example 76, 6-Chloro-8-(5-chloro-thiophen-3-yl)-9-(2,2,2-trifluoro-ethyl)-9H-pyrido[3,4-b]indole], the Emax fell in the range of 20 to 50%. In turn, `Fc1cncc(-c2cc(Cl)cc3c4ccncc4n(CC(F)(F)F)c23)c1` [Example 82, 6-Chloro-8-(5-fluoro-pyridin-3-yl)-9-(2,2,2-trifluoro-ethyl)-9H-pyrido[3,4-b]indole] returned an EC50 of 2000 nM and an Emax of 20 to 50%. For the compound `COc1ccc(-c2cc(Cl)cc3c2[nH]c2c(C)nccc23)cc1N` [Example 186, 5-(6-Chloro-1-methyl-9H-pyrido[3,4-b]indol-8-yl)-2-methoxy-phenylamine], the EC50 turned out to be 100 nM and the Emax is greater than 80%. `FC(F)(F)Cn1c2cnccc2c2cc(Cl)cc(-c3ccc(NC4CCCCC4)nc3)c21` [Example 80, (5-[6-Chloro-9-(2,2,2-trifluoro-ethyl)-9H-pyrido[3,4-b]indol-8-yl]-pyridin-2-yl)-cyclohexyl-amine]: the EC50 was found to be 1200 nM and the Emax is 20 to 50%. The matching figures for `CC(C)(C)OC(=O)n1cc(-c2cc(Cl)cc3c4ccncc4n(CC(F)(F)F)c23)cn1` [Example 12, tert-Butyl 4-(6-chloro-9-(2,2,2-trifluoroethyl)-9H-pyrido[3,4-b]indol-8-yl)-1H-pyrazole-1-carboxylate]: greater than 10000 nM and 20 to 50%. Turning to `COC(=O)c1cc2c([nH]c3c(-c4ccc(OC)cc4)cc(Cl)cc32)c(C)n1` [Example 152, 6-Chloro-8-(4-methoxy-phenyl)-1-methyl-9H-pyrido[3,4-b]indole-3-carboxylic acid methyl ester], the response was half-maximal at 360 nM (EC50) and the Emax is less than 20%. `Cc1nccc2c1[nH]c1c(-c3ccc(OCc4ccccn4)cc3)cc(Cl)cc12` [Example 202, 6-Chloro-1-methyl-8-[4-(pyridin-2-ylmethoxy)-phenyl]-9H-pyrido[3,4-b]indole]: a half-maximal response (EC50) required 640 nM and the Emax is greater than 80%. `FC(F)(F)Cn1c2cnccc2c2cc(Cl)cc(-c3ccccc3)c21` [Example 128, 6-Chloro-8-phenyl-9-(2,2,2-trifluoro-ethyl)-9H-pyrido[3,4-b]indole] returned an EC50 of 3900 nM and an Emax of less than 20%. The compound `COc1ccc(-c2cc(Cl)cc3c4ccnc(C)c4n(C)c23)nc1N` [Example 240, 6-(6-Chloro-1,9-dimethyl-9H-pyrido[3,4-b]indol-8-yl)-3-methoxy-pyridin-2-ylamine] yielded an EC50 of 490 nM and an Emax of 50 to 80%. The compound `Cc1nccc2c1[nH]c1c(-c3cnn(Cc4ccccn4)c3)cc(Cl)cc12` [Example 242, 6-Chloro-1-methyl-8-(1-pyridin-2-ylmethyl-1H-pyrazol-4-yl)-9H-pyrido[3,4-b]indole] came in with an EC50 of 570 nM and an Emax greater than 80%.
